Test results from patent publication US10105350B2, “Cosmetic preservatives as therapeutic corneoscleral tissue cross-linking agents” (THE TRUSTEES OF COLUMBIA UNIVERSITY IN THE CITY OF NEW YORK, priority 2014, dated 2018).
Like-named read-outs stand apart in the source and are kept apart here. Blank lines part the entries; values can stand above or below the compound they belong to.

Assays:
rat = settings: cited from earlier work
porcine scleral tissue = assay: scleral tissue cross-linking of cut porcine scleral pieces, shift in Tm by DSC
Method: Equatorial scleral strips approximately 6 mm×40 mm in size were obtained from multiple eyes. These strips were submerged in DPBS solution containing 1 mM EDTA to inactivate native collagenases and to prevent tissue dehydration during sample preparation. Each strip was further cut into smaller 4 mm×3 mm pieces. The scleral pieces were individually transferred to a 24 well plate and were incubated in 1 ml of cross-linking solution in 0.1M NaHCO3 buffer at either pH 8.5 or 7.4 for 30 mins at 25° C. without refreshing the solution. […] Negative controls were treated identically with vehicle. Post-treatment, all solutions were aspirated and samples were washed twice using DPBS to remove remnant cross-linking solution before being analyzed by DSC. A minimum of three independent determinations were carried out for each condition using scleral pieces originating from different porcine globes.
(§1) Thermal denaturation temperature (Tm) of all samples was measured using a Perkin-Elmer DSC 6000 Autosampler (Waltham, Mass.). Tissue samples were carefully blotted in a standardized, repetitive manner to remove excess solution/DPBS and transferred to pre-weighed 50 ul aluminum pans. The pans were immediately hermetically sealed using a DSC pan sealing press, which is used to prevent tissue dehydration due to evaporative losses. DSC scans were run using Pyris software (version 11.0) from 40° C. to 75° C. at a rate of 1° C./min and denaturation curves representing differential heat flow over time were recorded. DSC heat flow endotherm data was analyzed using the Pyris data analysis peak search function using a calculation limit of ±0.3° C. from the apparent thermal denaturation peak.
Conversely, scleral samples were subjected to non-paired t-tests assuming equal variance of data. […] All ΔTm values are reported in the form of mean value followed by standard error.

Salmonella = settings: Ames, micronucleus and other assays as per footnotes; cited from earlier work
[1] = cross-linking (gel formation) with polyallylamine (PAA) hydrogel model system; settings: with PAA at 37° C. and pH 7.4 phosphate buffered solution
Excerpt: Shown in Table 1 below are the results from a parallel study using a hydrogel functionalized amine cross-linking system (polyallylamine, or “PAA”) previously published for reactions using nitroalcohols (NAs). Li et al., “Mechanistic and catalytic studies of β-nitroalcohol crosslinking with polyamine,” J Appl Polym Sci. 2013; 128:3696-3701. The Table summarizes the results obtained in comparison studies using three of the higher order nitroalcohols previously reported (the nitrotriol HNPD, the nitrodiol MNPD, and the brominated nitrodiol known as Bronopol). The cross-linking efficacy of these nitroalcohol compounds were compared to two of the instantly disclosed formaldehyde releasing agents (diazolidinyl urea (DAU) and imidazolidinyl urea (IMU)). The time to gel formation indicates cross-linking efficacy in this system.

[2] = tested on: intact cadaveric rabbit cornea; assay: ex vivo rabbit corneal cross-linking simulation setup, shift in thermal denaturation temperature (Tm) by DSC; settings: for cross-linking efficacy compared with nitroalcohol NP (250 mM, 60 minutes): FIG. 2, half of maximum allowed concentration (DAU 9 mM, SHMG 18.5 mM, DMDM 16 mM), 30 minutes; for ΔTm (shift in denaturation temperature of corneal tissue): Second Experimental Details, 30 mins, mean ± standard error
Method: 0.5% proparacaine was applied prior to the cross-linking solution. A cross-linking solution containing the formaldehyde releasing agent was then administered via a corneal reservoir for 30 minutes in 0.1M NaHCO3 at either pH 7.4 or 8.5. The epithelium was left intact. The control contralateral eye was treated identically with vehicle.
Effectiveness of cross-linking was based on shifts in thermal denaturation temperature (Tm) as measured by differential scanning calorimetry (DSC) (Perkin-Elmer DSC 6000).
Intact cadaveric rabbit heads with clear corneas were obtained fresh (within an hour of sacrifice) in adherence with the ARVO Statement For the Use of Animals in Ophthalmic and Vision Research. FAR solutions at concentrations equivalent to half the maximum allowed value (½ max) were administered in a manner designed to simulate therapeutic cross-linking in patients. For all of the corneal experiments (with the notable exception of CXL), the corneal epithelium was left intact. An 8 mm Hessburg-Barron corneal reservoir was affixed to the corneal surface using the supplied syringe vacuum. A single drop of proparacaine (0.5%) was applied to the corneal surface prior to reservoir application. A buffer solution containing 0.1M NaHCO3 at either pH 8.5 or 7.4 was used. The pH of the sample and buffer mixture was titrated to the desired pH just prior to application to the eye using an appropriately concentrated HCl solution. Treatments were conducted over a 30-minute period at 25° C. with refreshing of the solution every five minutes. The control contralateral eye was treated identically with vehicle. Immediately after treatment, a central 6 mm corneal button was trephined from the treated region of each eye, was blotted on both sides using a paper towel to remove excess solution, and was analyzed using differential scanning calorimetry (DSC) [see below]. A minimum of two independent determinations were carried out for each condition described using a fresh cadaver head each time.
as §1
Due to the nature of the ex vivo cadaveric system used for corneal cross-linking, where each cadaver provided the treated eye and contralateral control, corneal samples were subjected to paired t-tests. […] All ΔTm values are reported in the form of mean value followed by standard error.

[3] = from literature registry; cited from earlier work
[4] = tested on: human skin fibroblasts (HSFs); settings: past cell toxicity studies; cited from earlier work
[5] = quantitative determination of formaldehyde release by 13C-NMR; assay type: physicochemical; settings: pH 7.4 phosphate buffer, releaser 1.5 M; for Concentration of formaldehyde (M)a: free formaldehyde after 30 min at 37° C.; for Concentration of formaldehyde (M)b: free formaldehyde after 1 hour at 37° C.
Method: In the study corresponding with Table 2, NMR samples were prepared in NMR tubes as follows: X mg of formaldehyde-releaser, 500 ul of phosphate buffer (pH 7.4), and 500 ul of a solution of acetonitrile in D2O as internal standard (0.2M). […]. For each spectrum, the area of the formaldehyde signal at 82.5 ppm was compared with that of the acetonitrile signal at 1.3 ppm (internal standard).
• Concentration of formaldehyde-releasing agent (FAR), including nitroalcohols is 1.5 M. ^aConcentration of free formaldehyde (FA): after the sample was incubated in a water bath at 37° C. for 30 min. ^bConcentration of free formaldehyde (FA): after the sample was incubated in a water bath at 37° C. for 1 hour.

mouse = settings: in vivo; cited from earlier work
[6] = tested on: human skin fibroblasts (HSFs); settings: 24 hrs exposure, 48 hr recovery
Method: Healthy human skin fibroblasts (HSFs) from ATCC (Manassas, Va.) were cultured in dermal cell basal media (ATCC) using a serum-free fibroblast growth kit provided by the company (ascorbic acid, EGF/TGF-β1, glutamine, hydrocortisone, insulin and FB growth supplements). Cells were grown in 5% CO2 and 95% ambient air at 37° C. until confluent. Once confluent, the cells were detached and seeded into 24 well plates at a density of 5×10^4 cells/well and were once again allowed to reach confluence. Next, cells were treated with FAR solutions over a range of concentrations (0.001 mM-5 mM) for 24 hrs. Following cross-linking exposure, all cell media, including FAR solution, was aspirated and each well was rinsed once with DPBS. Fresh media was then reintroduced and the cells were allowed to recover for 48 hrs. Subsequent to cell recovery, cell toxicity was assessed using a modified version of the trypan blue staining protocol. To that end, all culture media was aspirated and each well was rinsed with DPBS. Next, 0.4% trypan blue solution (Gibco, Grand Island, N.Y., USA) was added to each well for 3 minutes at 25° C. The staining solution was then aspirated and cells were washed twice with DPBS. Finally, extent of trypan blue staining and morphology of cells was visualized using an inverted microscope (Fisher Scientific Cat#12-560-45).
Planar cell culture experiments using Human Skin Fibroblasts (HSFs) were conducted to determine the toxicity thresholds of the FARs. The toxicity threshold was taken to be the highest concentration in mM at which all cells were alive following a 24 hour exposure to the FAR and a 48 hour recovery period.

rabbit = settings: cited from earlier work
[7] = pH 7.4, half max allowed concentration, epithelium intact
[8] = pH 8.5, half max allowed concentration, epithelium intact
[9] = pH 8.5, concentrations as low as half max allowed

Compound: O=[N+]([O-])C(Br)(CO)CO [BP, 2-bromo-2-nitro-1,3-propanediol, reference compound]
- LD50 Oral rat (rat; oral): 180 mg/kg
- ΔTm of scleral tissue (porcine scleral tissue; 25 mM, pH 7.4, 30 mins): ~0.5 °C
- ΔTm of scleral tissue (porcine scleral tissue; 25 mM, pH 8.5, 30 mins): ~0.5 °C
- Mutagenicity (Salmonella): Non- mutagenic§
- Cross-linking time to gel formation [1]: 42 h

Compound: CC1(C)C(=O)N(CO)C(=O)N1CO [DMDM, 1,3-dimethylol-5,5-dimethyl-hydantoin]
- cross-linking efficacy compared with nitroalcohol NP (250 mM, 60 minutes) [2]: significantly more effective
- ΔTm (shift in denaturation temperature of corneal tissue) [2, 7]: 2.13±0.273 °C
- ΔTm (shift in denaturation temperature of corneal tissue) [2, 8]: 2.04±0.225 °C
- ΔTm of scleral tissue (porcine scleral tissue; 25 mM, pH 7.4, 30 mins): 1.693±0.033 °C
- scleral cross-linking effect (significance of ΔTm) (porcine scleral tissue; pH 7.4, concentrations as low as half max allowed): statistically significant cross-linking effects
- scleral cross-linking effect (significance of ΔTm) (porcine scleral tissue; [9]): statistically significant cross-linking effects
- Octanol Partition Coefficient (Log P) [3]: −1.078 ± 0.654
- Mutagenicity (Salmonella): Non- mutagenic‡

Compound: O=CC(O)CO (stereo not shown) [Glyceraldehyde]
- toxic threshold for HSFs [4]: 1 mM

Compound: O=[N+]([O-])C(CO)(CO)CO [HNPD, 2-hydroxymethyl-2-nitro-1,3-propanediol, reference compound]
- LD50 Oral rat (rat; in vivo, po): 1,917 mg/kg
- ΔTm of scleral tissue (porcine scleral tissue; 25 mM, pH 7.4, 30 mins): negative ΔTm
- ΔTm of scleral tissue (porcine scleral tissue; 25 mM, pH 8.5, 30 mins): ~0.5 °C
- Concentration of formaldehyde (M)a [5]: 0.041 M
- Concentration of formaldehyde (M)b [5]: 0.078 M
- Octanol Partition Coefficient (Log P) [3]: −0.115 ± 0.770
- Mutagenicity (Salmonella): Non- mutagenic∥
- Cross-linking time to gel formation [1]: 29 h
- LD50 Oral mouse (mouse): 10,550 mg/kg

Compound: O=C(NCNC(=O)NC1C(=O)NC(=O)N1CO)NC1C(=O)NC(=O)N1CO (stereo not shown) [IMU, N,N′-methylenebis[N-[3-(hydroxymethyl)-2,5-dioxo-4-imidazolidinyl]]-urea]
- LD50 Oral rat (rat; oral): LD50 Oral- rat-11,300 mg/kg
- ΔTm (shift in denaturation temperature of corneal tissue) [2, 8]: −0.69±0.697 °C
- negative shift in Tm of corneal tissue ([2]; pH 7.4, half max allowed concentration, epithelium intact, not significant): ~0.5 °C
- ΔTm of scleral tissue (porcine scleral tissue; 25 mM, pH 7.4, 30 mins): 1.280±0.392 °C
- ΔTm of scleral tissue (porcine scleral tissue; 25 mM, pH 8.5, 30 mins): 2.543±0.280 °C
- cell state (Alive/Dead) ([6]; 0.001 mM): Alive
- cell state (Alive/Dead) ([6]; 0.01 mM): Alive
- cell state (Alive/Dead) ([6]; 0.1 mM): Alive
- cell state (Alive/Dead) ([6]; 1 mM): Dead
- cell state (Alive/Dead) ([6]; 5 mM): Dead
- Octanol Partition Coefficient (Log P) [3]: −4.930 ± 0.959

Compound: CCC12COCN1COC2 [OCT, 5-Ethyl-3,7-dioxa-1-azabicyclo [3.3.0] octane]
- LD50 Oral rat (rat; oral): > 3,600 mg/kg
- LD50 Dermal rabbit (rabbit; dermal): 1,948 mg/kg
- ΔTm (shift in denaturation temperature of corneal tissue) [2, 8]: 1.10±0.246 °C
- ΔTm of scleral tissue (porcine scleral tissue; 25 mM, pH 7.4, 30 mins): ~0.5 °C
- ΔTm of scleral tissue (porcine scleral tissue; 25 mM, pH 8.5, 30 mins): ~0.5 °C

Compound: O=C([O-])CNCO.[Na+] [SMG, sodium hydroxymethylglycinate]
- LD50 Oral rat (rat; in vivo, po): LD50 Oral- rat-2,100 mg/kg, LD50 Dermal-
- LD50 Dermal rabbit (rabbit; in vivo, topical or ocular): rabbit->2,000 mg/kg
- cross-linking efficacy compared with nitroalcohol NP (250 mM, 60 minutes) [2]: significantly more effective
- ΔTm (shift in denaturation temperature of corneal tissue) [2, 7]: 2.281±0.697 °C
- ΔTm (shift in denaturation temperature of corneal tissue) [2, 8]: 3.573±0.578 °C
- ΔTm of scleral tissue (porcine scleral tissue; 25 mM, pH 7.4, 30 mins): 1.697±0.311 °C
- ΔTm of scleral tissue (porcine scleral tissue; 25 mM, pH 8.5, 30 mins): 5.463±0.419 °C
- ΔTm of scleral tissue (porcine scleral tissue; pH 7.4, 39.06 mM (max allowed), 30 mins): 0.007±0.222 °C
- ΔTm of scleral tissue (porcine scleral tissue; pH 8.5, 39.06 mM (max allowed), 30 mins): 9.073±0.450 °C
- scleral cross-linking effect (significance of ΔTm) (porcine scleral tissue; [9]): statistically significant cross-linking effects
- cell state (Alive/Dead) ([6]; 0.001 mM): Alive
- cell state (Alive/Dead) ([6]; 0.01 mM): Alive
- cell state (Alive/Dead) ([6]; 0.1 mM): Alive
- cell state (Alive/Dead) ([6]; 1 mM): Dead
- cell state (Alive/Dead) ([6]; 5 mM): Dead
- Octanol Partition Coefficient (Log P) [3]: −1.197
- Mutagenicity (Salmonella): Non- mutagenic†

Compound: COC(=O)C1=CO[C@@H](O)[C@@H]2C(CO)=CC[C@H]12 [genipin]
- toxic threshold for HSFs [4]: on par with bronopol

Compound: O=CCCCC=O [glutaraldehyde]
- toxic threshold for HSFs [4]: on par with bronopol

Compound: CC(CO)(CO)[N+](=O)[O-] [nitro-diol, 2-methyl-2-nitro-1,3-propanediol]
- Concentration of formaldehyde (M)a [5]: 0.011 M
- Concentration of formaldehyde (M)b [5]: 0.044 M
- Cross-linking time to gel formation [1]: 66 h

- Concentration of formaldehyde (M)a [5]: 0.018 M
- Concentration of formaldehyde (M)b [5]: 0.014 M
Compound: CC(CO)[N+](=O)[O-] (stereo not shown) [nitro-monol, 2-nitro-1-propanol]

Compound: N,N′-methylenebis[N-[3-(hydroxymethyl)-2,5-dioxo-4-imidazolidinyl]]-urea [IMU]
- Cross-linking time to gel formation [1]: 4 h
